Assay results from US4103008A, “7[2(2,3 Dioxopiperazin-1-yl-carbonylamino)substituted 2 phenylacetamido]-3-2'-thiadiazolyl cephalosporanic acid derivatives” (priority 1976, dated 1978).
Values after ≈ are worked out from the molar mass of the structure shown. Where two headings read alike, the source gives them in different places.

Experiments:
[1] = tested on: Enterobacter strain C73-17; test: In vitro antibacterial activity (MIC); assay type: cell-based; conditions: C7317
Proteus morganii C73-23 = test: In vitro antibacterial activity (MIC); assay type: cell-based; conditions: Morganella morganii, C7323; Proteus morganii C73-23; in vitro; sodium salts; read-out: MIC
[2] = tested on: Bacillus substilis ATCC 6633; test: In vitro antibacterial activity (MIC); assay type: cell-based; conditions: ATCC6633; Bacillus substilis ATCC 6633; in vitro; sodium salts; read-out: MIC
Escherichia coli C 73-1 = test: In vitro antibacterial activity (MIC); assay type: cell-based; conditions: C731
Proteus morganii kono = test: In vitro antibacterial activity (MIC); assay type: cell-based; conditions: Morganella morganii; Proteus morganii kono; in vitro; sodium salts; read-out: MIC
[3] = tested on: Pseudomonas aerugenosa E 2 strain; test: ED50 in Pseudomonas infection in mice; assay type: in vivo; conditions: ICR-JCL mouse, male, 20g; P. aerugenosa E 2 3.6 × 10^4 intraperitoneal; compound intramuscular after 2 hrs.; ED50 after 7 days; sodium salts
From the text: (§1) Given below are the test results of in vitro antibacterial activity studies, serum concentrations and accumulative urinary excretions in rabbits and the protecting effects in mice, of some representative compounds of the invention.
(§2) The compounds used in the tests are shown in the following Table 1, but all of these compounds are in the form of the sodium salt.
Pseudomonas aerugenosa E 2 strain (3.6 × 10^4) was intraperitonealy injected to each group of 10 of ICR-JCL mouse (male, 20g). After 2 hrs., each of the test compounds was intramuscularly administered to the infected mice and the ED50 values were measured after 7 days.

Serratia strain No. 1 = test: In vitro antibacterial activity (MIC); assay type: cell-based; conditions: Serratia strain No. 1; in vitro; sodium salts; read-out: MIC
Serratia strain No. 2 = test: In vitro antibacterial activity (MIC); assay type: cell-based; conditions: Serratia strain No. 2; in vitro; sodium salts; read-out: MIC
[4] = tested on: Streptococcus faecalis ATCC 8043; test: In vitro antibacterial activity (MIC); assay type: cell-based; conditions: Enterococcus faecalis, ATCC8043; Streptococcus faecalis ATCC 8043; in vitro; sodium salts; read-out: MIC
[5] = tested on: Vibrio parahaemolyticus K - 5; test: In vitro antibacterial activity (MIC); assay type: cell-based; conditions: K5; Vibrio parahaemolyticus K - 5; in vitro; sodium salts; read-out: MIC
[6] = tested on: Shigella dysenteriae shigae; test: microbe, parasite or virus in culture; assay type: cell-based
[7] = tested on: Salmonella strain C 73-30; test: In vitro antibacterial activity (MIC); assay type: cell-based; conditions: C7330; Salmonella strain C 73-30; in vitro; sodium salts; read-out: MIC
From the text: as §1, §2

[8] = tested on: Pseudomonas strain C73-83; test: In vitro antibacterial activity (MIC); assay type: cell-based; conditions: C7383; Pseudomonas strain C73-83; in vitro; sodium salts; read-out: MIC
From the text: as §1, §2

Salmonella strain C73-1 = test: In vitro antibacterial activity (MIC); assay type: cell-based; conditions: C731; Salmonella strain C73-1; in vitro; sodium salts; read-out: MIC
From the text: as §1, §2

[9] = tested on: Salmonella enteritidis No. 11; test: In vitro antibacterial activity (MIC); assay type: cell-based; conditions: Salmonella enterica; Salmonella enteritidis No. 11; in vitro; sodium salts; read-out: MIC
[10] = tested on: Pseudomonas aeruginosa C73-2; test: In vitro antibacterial activity (MIC); assay type: cell-based; conditions: C732; Pseudomonas aeruginosa C73-2; in vitro; sodium salts; read-out: MIC
[11] = tested on: Vibrio parahaemolyticus K - 3; test: In vitro antibacterial activity (MIC); assay type: cell-based; conditions: K3; Vibrio parahaemolyticus K - 3; in vitro; sodium salts; read-out: MIC
Klebsilla pneumoniae = test: In vitro antibacterial activity (MIC); assay type: cell-based
[12] = tested on: Staphylococcus aureus FDA 209NIH, P-J C-1; test: In vitro antibacterial activity (MIC); assay type: cell-based; conditions: Staphylococcus aureus FDA 209NIH, P-J C-1; in vitro; sodium salts; read-out: MIC
[13] = Serum concentration and accumulative urinary excretion in rabbit; conditions: in vivo, im; for dose excreted at 6 h: 20 mg/kg; for concentration at 0.5 h: 20 mg/kg intramuscular, after 30 mins., sodium salts, Sarcina lutea assay
Description: as §1, §2
Each of the test compounds (20 mg/kg) was intramuscularly administered to one group of 3 rabbits, and the amounts of antibiotics were measured by a conventional method, using Sarcina lutea.

Escherichia coli C 73-4 = test: In vitro antibacterial activity (MIC); assay type: cell-based; conditions: C734; Escherichia coli C 73-4; in vitro; sodium salts; read-out: MIC
[14] = tested on: Pseudomonas strain C73-63; test: In vitro antibacterial activity (MIC); assay type: cell-based; conditions: C7363; Pseudomonas strain C73-63; in vitro; sodium salts; read-out: MIC
[15] = Enterobacter strain C73-17, in vitro, sodium salts, read-out: MIC
[16] = Escherichia coli C 73-1, in vitro, sodium salts, read-out: MIC
[17] = Klebsilla pneumoniae, in vitro, sodium salts, read-out: MIC

| SMILES | MIC (Proteus morganii C73-23) | MIC [2] | MIC (Proteus morganii kono) | ED50 in Pseudomonas infection in mice [3] | MIC (Serratia strain No. 1) | MIC (Serratia strain No. 2) | MIC [4] | MIC [5] | MIC [6] | MIC [7] | MIC [8] | MIC (Salmonella strain C73-1) | MIC [9] | MIC [10] | MIC [11] | MIC [12] | dose excreted at 6 h [13] | concentration at 0.5 h [13] | MIC (Escherichia coli C 73-4) | MIC [14] | also measured |
| --- | --- | --- | --- | --- | --- | --- | --- | --- | --- | --- | --- | --- | --- | --- | --- | --- | --- | --- | --- | --- | --- |
| CCN1CCN(C(=O)N[C@@H](C(=O)NC2C(=O)N3C(C(=O)O)=C(CSc4nncs4)CS[C@H]23)c2ccc(O)c(Cl)c2)C(=O)C1=O (single isomer, unassigned) [II, 7-[D(-)-α-(4-ethyl-2,3-dioxopiperazin-1-yl-carbonylamino)-m-chloro-p-hydroxyphenylacetamido]-3-(1,3,4-thiadiazol-2-yl-thiomethyl)-3-cephem-4-carboxylic acid] | 6.25 mg/L | 0.39 mg/L | 3.13 mg/L | 2.2 mg/mouse | 3.13 mg/L | 6.25 mg/L | 1.56 mg/L | 12.5 mg/L | < 0.05 mg/L | 1.56 mg/L | 12.5 mg/L | 0.78 mg/L | < 0.05 mg/L | 6.25 mg/L | 12.5 mg/L | 0.2 mg/L | 24% | 28.8 µg/mL | 1.56 mg/L | 1.56 mg/L | MIC [1, 15]: 12.5 mg/L; MIC (Escherichia coli C 73-1; [16]): 1.56 mg/L; MIC (Klebsilla pneumoniae; [17]): 0.78 mg/L |
| CCN1CCN(C(=O)N[C@@H](C(=O)NC2C(=O)N3C(C(=O)O)=C(CSc4nncs4)CS[C@H]23)c2ccc(OC(C)=O)cc2)C(=O)C1=O (single isomer, unassigned) [III, 7-[D(-)-α-(4-ethyl-2,3-dioxopiperazin-1-yl-carbonylamino)-p-acetoxyphenylacetamido]-3-(1,3,4-thiadiazol-2-yl-thiomethyl)-3-cephem-4-carboxylic acid] | 12.5 mg/L | 12.5 mg/L | 6.25 mg/L | 2.6 mg/mouse | 6.25 mg/L | 1.56 mg/L | 1.56 mg/L | 6.25 mg/L | 0.78 mg/L (≈ 1.13 µM) | 0.78 mg/L | 25 mg/L | 0.78 mg/L | 1.56 mg/L | 1.56 mg/L | 6.25 mg/L | 12.5 mg/L | 48% | 62 µg/mL | 3.13 mg/L | 6.25 mg/L | MIC [1, 15]: 25 mg/L; MIC (Escherichia coli C 73-1; [16]): 3.13 mg/L; MIC (Klebsilla pneumoniae; [17]): 0.78 mg/L |
| CCOC(=O)Oc1ccc([C@@H](NC(=O)N2CCN(CC)C(=O)C2=O)C(=O)NC2C(=O)N3C(C(=O)O)=C(CSc4nncs4)CS[C@H]23)cc1 (single isomer, unassigned) [V, 7-[D(-)-α-(4-ethyl-2,3-dioxopiperazin-1-yl-carbonylamino)-p-ethoxycarbonyloxyphenylacetamido]-3-(1,3,4-thiadiazol-2-yl-thiomethyl)-3-cephem-4-carboxylic acid] | 12.5 mg/L | 0.78 mg/L | 3.13 mg/L | 1.0 mg/mouse | 3.13 mg/L | 3.13 mg/L | 12.5 mg/L | 6.25 mg/L | 0.78 mg/L (≈ 1.08 µM) | 1.56 mg/L | 25 mg/L | 1.56 mg/L | 0.2 mg/L | 6.25 mg/L | 6.25 mg/L | 0.39 mg/L | 24.1% | 43 µg/mL | 3.13 mg/L | 6.25 mg/L | MIC [1, 15]: 3.13 mg/L; MIC (Escherichia coli C 73-1; [16]): 1.56 mg/L; MIC (Klebsilla pneumoniae; [17]): 0.39 mg/L |
| CCN1CCN(C(=O)N[C@@H](C(=O)NC2C(=O)N3C(C(=O)O)=C(CSc4nncs4)CS[C@H]23)c2ccc(OC(C)=O)c(Cl)c2)C(=O)C1=O (single isomer, unassigned) [IV, 7-[D(-)-α-(4-ethyl-2,3-dioxopiperazin-1-yl-carbonylamino)-m-chloro-p-acetoxyphenylacetamido]-3-(1,3,4-thiadiazol-2-yl-thiomethyl)-3-cephem-4-carboxylic acid] | 12.5 mg/L | 6.25 mg/L | 3.13 mg/L | 1.8 mg/mouse | 3.13 mg/L | 3.13 mg/L | 1.56 mg/L | 12.5 mg/L | 0.39 mg/L (≈ 0.539 µM) | 1.56 mg/L | 25 mg/L | 1.56 mg/L | 3.13 mg/L | 3.13 mg/L | 12.5 mg/L | 6.25 mg/L | 27% | 34.9 µg/mL | 6.25 mg/L | 3.13 mg/L | MIC [1, 15]: 25 mg/L; MIC (Escherichia coli C 73-1; [16]): 6.25 mg/L; MIC (Klebsilla pneumoniae; [17]): 0.78 mg/L |
| CCOC(=O)Oc1ccc([C@@H](NC(=O)N2CCN(CC)C(=O)C2=O)C(=O)NC2C(=O)N3C(C(=O)O)=C(CSc4nncs4)CS[C@H]23)cc1Cl (single isomer, unassigned) [VI, 7-[D(-)-α-(4-ethyl-2,3-dioxopiperazin-1-yl-carbonylamino)-m-chloro-p-ethoxycarbonyloxyphenylacetamido]-3-(1,3,4-thiadiazol-2-yl-thiomethyl)-3-cephem-4-carboxylic acid] | 12.5 mg/L | 0.39 mg/L | 3.13 mg/L | 0.8 mg/mouse | 6.25 mg/L | 6.25 mg/L | 6.25 mg/L | 12.5 mg/L | 1.56 mg/L (≈ 2.07 µM) | 3.13 mg/L | 12.5 mg/L | 3.13 mg/L | 0.2 mg/L | 12.5 mg/L | 12.5 mg/L | 0.39 mg/L | 17.4% | 19.4 µg/mL | 3.13 mg/L | 3.13 mg/L | MIC ([1]; Enterobacter): 1.56 mg/L (≈ 2.07 µM); MIC (Escherichia coli C 73-1; Escherichia coli): 1.56 mg/L (≈ 2.07 µM); MIC (Klebsilla pneumoniae): 1.56 mg/L (≈ 2.07 µM) |
